{"source": "a melting point compilation (Tetko et al.; mined from patent text by program, amines drawn as free bases though some values may be those of a salt)"}
{"units": {"melting point": "°C"}}
{"smiles": "N#Cc1c(N2CCc3ccccc3CC2)nc(CO)[nH]c1=O", "melting point": "196 to 198"}
{"smiles": "CC(=O)c1c(C)c(NC(=O)CC(C)(C)C)c(C)c2c1OCC2c1ccc(C(C)C)cc1", "note": "(centres undefined)", "melting point": "176 to 177"}
{"smiles": "Cc1ccnc(Sc2nc(C)c(CC(=O)O)s2)c1C(=O)O", "melting point": "208 to 210"}
{"smiles": "CN=C(NC#N)NCCSCc1ccco1", "melting point": "78 to 82"}
{"smiles": "N#CCCCSc1nccc(NC(N)=NCC(F)(F)F)n1", "melting point": 137}
{"smiles": "C=CCONc1nc(NC=O)nc(Cl)c1NC=O", "melting point": "170 to 181"}
{"smiles": "CCCc1c2[nH]c(C(=O)OCC)cc(=O)c2cc2c(=O)cc(C(=O)OCC)oc12", "melting point": "211 to 212"}
{"smiles": "COCCCn1c(CO)c(Cl)c2c3c(c(-c4ccccc4Cl)cc21)C(=O)NC3=O", "melting point": "214 to 215"}
{"smiles": "CCOC(=O)c1cnn(Cc2ccccc2)c1NC(=O)Nc1ccccc1", "melting point": "178 to 179"}
{"smiles": "OCCOCCn1c(NC2CCNCC2)nc2ccccc21", "melting point": 164}
{"smiles": "Cn1c(SC(F)F)n[nH]c1=O", "melting point": 87}
{"smiles": "COc1ccc(S(=O)(=O)NC(CCF)C(=O)OC(C)(C)C)cc1", "note": "(centres undefined)", "melting point": "89 to 90"}
{"smiles": "O=C(O)c1cccc(-c2ncc(O)cn2)c1", "melting point": "293 to 295"}
{"smiles": "COc1c(C=O)cc(Cl)c(Cl)c1OC", "melting point": "75 to 77"}
{"smiles": "N#CCCc1coc2ccc(Br)cc12", "melting point": "56 to 58"}
{"smiles": "Cc1cc(N)n(C(CCc2ccccc2)=NO)n1", "melting point": "138 to 140"}
{"smiles": "COc1ccc(N2C(=O)[C@H](O)[C@@H]2CC(C)C)cc1", "melting point": "160 to 163"}
{"smiles": "O=C(O)c1cc2cc(-c3ccccc3)ccc2o1", "melting point": "220 to 221"}
{"smiles": "COc1cc(CCN2CCCCC2)cc(OC)c1-c1ccc(C[C@H](NC(=O)c2c(Cl)cccc2Cl)C(=O)O)cc1", "melting point": 195}
{"smiles": "O=C(NC(Cc1ccccc1)C(=O)O)c1ccc(-c2ccc(OCc3ccccc3)cc2)nc1", "note": "(centres undefined)", "melting point": 240}
{"smiles": "Cc1nc2c(cc1C(=O)NC(=N)N)CCCCC2O", "note": "(centres undefined)", "melting point": "207 to 210"}
{"smiles": "CCOC(=O)c1ncn(-c2nccs2)c1S(N)(=O)=O", "melting point": "84 to 85"}
{"smiles": "Cc1sc2ncc(C(=O)CC(O)c3ccccc3)n2c1C", "note": "(centres undefined)", "melting point": 113}
{"smiles": "COc1cc(C(=O)O)ccc1Cc1cccc2ccc(C(=O)NCC(C)C)cc12", "melting point": 254}
{"smiles": "S=C(Nc1ccc(Cl)c(Cl)c1)Nc1ncccc1OCc1ccccc1", "melting point": "144 to 146"}
{"smiles": "CC(=O)SC[C@H](NC(=O)C(C)C)C(=O)NCCSC(=O)c1ccccc1", "melting point": "174 to 176"}
{"smiles": "Nc1ncnc2cc(CCl)ccc12", "melting point": "> 300"}
{"smiles": "O=c1c(Cl)c(Cl)cnn1-c1ccc(Cl)cc1F", "melting point": 158}
{"smiles": "Cc1ccccc1OC(Cc1ccc(OCCN(C)c2nc3ccccc3o2)cc1)C(=O)O", "note": "(centres undefined)", "melting point": "142 to 143"}
{"smiles": "COc1ccc(Cl)c(Oc2c(C)nc(N3CCOCC3)nc2O)c1", "melting point": 252}
{"smiles": "CC(C)(C)c1ccccc1N1CCN(C(=O)C2CCC(=O)N2CC(=O)O)CC1", "note": "(centres undefined)", "melting point": 273}
{"smiles": "CC(C)(Br)C(=O)OCCN1C(=O)c2ccccc2C1=O", "melting point": "63 to 65"}
{"smiles": "Cc1noc(C)c1C(=O)Nc1ccc(-n2nccc2C)cc1", "melting point": "151 to 152"}
{"smiles": "COC(=O)CCc1ccc(Oc2ccc(-c3ccc(C#N)cc3)nn2)cc1", "melting point": "164 to 167"}
{"smiles": "COc1ccc2c(CCC3CCN(C(=O)OC(C)(C)C)CC3)noc2c1", "melting point": "95 to 96"}
{"smiles": "COc1ccc(COc2cncc3c2C(=O)c2c(F)ccc(Cl)c2C3=O)cc1", "melting point": "155 to 157"}
{"smiles": "O=C(CCCCCCCCCCBr)Nc1ccc(O)cc1", "melting point": "116 to 117"}
{"smiles": "COc1cccc2[nH]cc(/C(C#N)=C/c3cccnc3)c12", "melting point": 177}
{"smiles": "CC1(C(=O)Nc2ccc(OC(=O)Cc3cccs3)c(Cl)c2Cl)CCCCC1", "melting point": 58}
{"smiles": "CCCCOC(=O)CNC(=O)c1nc2ccc(OCCCC)cc2cc1OCc1ccccc1", "melting point": "99 to 101"}
{"smiles": "COCC1CN(c2ccc(C3CCC(OC(c4ccccc4)c4ccccc4)CC3)cc2)C(=O)O1", "note": "(racemic)", "melting point": "146 to 148"}
{"smiles": "CCCc1c(C(=O)C(C)C)c2ccc(C(=O)O)cc2n1Cc1ccc(F)cc1Cl", "melting point": "243 to 244"}
{"smiles": "S=C1Nc2ccccc2C1(c1c[nH]c2ccccc12)C1CNc2ccccc21", "note": "(centres undefined)", "melting point": "> 260"}
{"smiles": "O=[N+]([O-])c1cc([N+](=O)[O-])c(Nc2c(Br)cc(Cl)c3ccccc23)c(C(F)(F)F)c1", "melting point": "207 to 209"}
{"smiles": "Cc1ccc(-c2ncc3c(n2)CCCC3)nc1-c1ccc(C#N)cc1", "melting point": "178 to 182"}
{"smiles": "CCOC(=O)c1cc([N+](=O)[O-])ccc1OCc1ccc2ccccc2n1", "melting point": "139 to 140"}
{"smiles": "CCCCN(CCCC)CCCOc1ccc(S(=O)(=O)c2ccc3ccccc3c2)cc1", "melting point": 90}
{"smiles": "C=C(C)C(=O)Oc1ccc2c(c1)C(=O)c1ccccc1C2=O", "melting point": "184 to 186"}
{"smiles": "O=C(Nc1ccc(C(=O)N2Cc3ccccc3-c3ccccc32)cc1)c1ccc(Cl)c(Cl)c1", "melting point": "94 to 95"}
{"smiles": "CCc1ccc2c(c1)C(=O)Nc1cccnc1N2C(=O)NCCN1CCCCC1CN(CC)CC", "note": "(centres undefined)", "melting point": "124 to 126"}
{"smiles": "CCN1CCNC(=O)C1c1ccc(Nc2nc(Br)cn(C)c2=O)cc1", "note": "(centres undefined)", "melting point": "152 to 153"}
{"smiles": "N#Cc1ccc(C(=O)C(Br)C(Br)c2ccc(C#N)cc2)cc1", "note": "(centres undefined)", "melting point": "192 to 193"}
{"smiles": "CC1(C)CCC(C)(C)c2cc(CC#Cc3ccc(CO)c(O)c3)ccc21", "melting point": "94 to 95"}
{"smiles": "COCCc1nc2c(N)nc3ccccc3c2n1CCCNS(=O)(=O)c1ccc(C)cc1", "melting point": "189 to 191"}
{"smiles": "FC(F)C(F)(F)Oc1cccc(Nc2nccc(-c3ccnc(Cl)c3)n2)c1", "melting point": "150 to 153"}
{"smiles": "Cc1c[nH]c(=O)nc1-n1cncn1", "melting point": "258 to 264"}
{"smiles": "Nc1cccc(NC(=O)c2ccc(CNC(=O)OCc3cccnc3)cc2)c1", "melting point": 156}
{"smiles": "CC1(Cc2ccccc2)Cc2cc(OCC(=O)O)c(Cl)c(Cl)c2C1=O", "note": "(centres undefined)", "melting point": "167 to 168"}
{"smiles": "NCc1ccc(-c2cnc(N3CCN(C4CC4)CC3)nc2)cc1", "melting point": "150 to 152"}
{"smiles": "CN(C)CCc1ccc(O)c2[nH]nnc12", "melting point": "207 to 211"}
{"smiles": "c1ccc2c(c1)C[C@H]1CSC(=Nc3cnccn3)N1C2", "melting point": 140}
{"smiles": "COC(=O)CC1=CCN(C)c2ccc(Cl)cc21", "melting point": "99 to 101"}
{"smiles": "O=C(Nc1ccccc1)C1(C=Cc2ccccc2)SC=CC1OC(F)F", "note": "(centres undefined)", "melting point": "80 to 82"}
{"smiles": "COc1cccc(CNc2nccc(-c3cc(N4CCN(CCCN5CCCCC5)CC4)c4cc(OC)ccc4c3)n2)c1", "melting point": "63 to 75"}
{"smiles": "CC(=O)CCCCCC(=O)N[C@@H](C)C(=O)N[C@H](CCC(=O)OCc1ccccc1)C(N)=O", "melting point": 162}
{"smiles": "CCOC(=O)CCc1ccc(OCCCc2cn(-c3ccc(C(F)(F)F)cn3)nc2OCC)c(O)c1", "melting point": "92 to 93"}
{"smiles": "c1cc(Cc2nnn[nH]2)cc(OCc2ncc3ccccc3n2)c1", "melting point": "129 to 131"}
{"smiles": "CON(Cc1ccc(F)c(F)c1)C(=O)C1=C(O)C(=O)N(C)C1", "melting point": "146 to 147"}
{"smiles": "CCCCOc1c(CNC(=O)OC(C)(C)C)n(CC2CC2)c(=O)c2ccc(Br)cc12", "melting point": "118 to 119"}
{"smiles": "CCOC(=O)NOC(=O)CCCCC(=O)ONC(=O)OCC", "melting point": 60}
{"smiles": "COc1ccc(Cn2c(=O)c3nccnc3n(CCCCBr)c2=O)cc1", "melting point": "117 to 119"}
{"smiles": "O=C(c1ccccc1C(c1ccc(O)cc1)c1ccc(O)cc1)N1CC2CCC(CC2)C1", "melting point": "164 to 166"}
{"smiles": "COc1nc(C)nc(OC)c1N1CCCn2c1nc1c(Cl)ccc(C(O)(C3CC3)C3CC3)c12", "melting point": "204 to 205"}
{"smiles": "CCS(=O)(=O)c1cc2c(cc1OC)CCn1c3c(c(-c4cccs4)c1-2)CCCCN(C(C)(C)C)C3=O", "melting point": "223 to 224"}
{"smiles": "COc1cc2c(c(Cl)c1Cl)SC(c1ccccc1)C2=O", "note": "(centres undefined)", "melting point": "228 to 229"}
{"smiles": "CCOC(=O)C=Cc1ccc(CCc2nc(-c3ccccc3)oc2C)cc1", "melting point": "73 to 74"}
{"smiles": "O=C(O)c1ccccc1COc1ccc(CCCO)cc1", "melting point": "139 to 140"}
{"smiles": "O=C(O)CCC(=O)c1ccc(NC(=O)c2ccccc2F)cc1", "melting point": "191 to 193"}
{"smiles": "CSc1nn(C(=O)NS(=O)(=O)c2ccccc2OC(F)(F)F)c(=O)n1N", "melting point": 136}
{"smiles": "Cc1ccc(C(=O)c2cc(-c3cccnc3)c(N3CCOCC3)s2)cc1", "melting point": 134}
{"smiles": "O=C1c2ccccc2C(=O)N1CCN1CCN(C(c2ccc(F)cc2)c2ccc(F)cc2)CC1", "melting point": "125 to 126"}
{"smiles": "O=C(O)c1ccccc1Nc1ccnn1Cc1ccccc1", "melting point": 190}
{"smiles": "Cc1ccc2c(c1)[nH]c(=O)n2C1CCN(C2CCN(C(=O)OC(C)(C)C)CC2)CC1", "melting point": "210 to 211"}
{"smiles": "Clc1cc(Oc2ccc3ncccc3c2)ncn1", "melting point": "136 to 137"}
{"smiles": "CCCCC(=N)NC(=O)Nc1ccc(Cl)c(Cl)c1", "melting point": "177 to 179"}
{"smiles": "CN1C(=O)C=C(c2ccccc2)C1(C)O", "note": "(centres undefined)", "melting point": "148 to 152"}
{"smiles": "CCOC(=O)C1=C(C=NOc2ccc([N+](=O)[O-])cc2[N+](=O)[O-])NC(CF)=C(C(=O)OCC)C1c1cccc([N+](=O)[O-])c1", "note": "(centres undefined)", "melting point": "150 to 152"}
{"smiles": "OCc1ccccc1OCc1ncc2ccccc2n1", "melting point": "92 to 96"}
{"smiles": "CCn1nc2c(N)nc3ccccc3c2c1CC1(O)CCN(S(C)(=O)=O)CC1", "melting point": "268 to 270"}
{"smiles": "CCCCOCCOc1ccc(-c2ccc3c(c2)C=C(C(=O)Nc2ccc(CS(=O)c4nncn4C)cc2)CCN3CC(C)C)cc1", "note": "(centres undefined)", "melting point": "87 to 89"}
{"smiles": "Cc1nc(OCC=C(F)F)c(C#N)c(N2CCc3ccccc3CC2)n1", "melting point": "158 to 159"}
{"smiles": "CC(=O)Oc1cccc2c(-c3cccs3)c3cccc(OC(C)=O)c3c(OC(C)=O)c12", "melting point": 260}
{"smiles": "O=[N+]([O-])c1ccc(Cl)cc1Sc1cccc2cnccc12", "melting point": "151 to 153"}
{"smiles": "Nc1ccc(-c2cc(OCC(=O)N3CCOCC3)c3c(C(F)(F)F)cccc3n2)cc1", "melting point": 174}
{"smiles": "CNC(=O)C1=CC(CF)(CF)Oc2ccc([N+](=O)[O-])cc21", "melting point": "178 to 179"}
{"smiles": "COc1ccc(S(=O)(=O)Nc2cccc3c2Nc2ccc(C#N)cc2CN3)cc1", "melting point": "105 to 107"}
{"smiles": "COC(=O)[C@H]1C[C@H](NC(=O)Nc2ccc(I)cc2)c2c(Cl)cc(Cl)cc2N1", "note": "(relative stereo)", "melting point": "253 to 255"}
{"smiles": "CCNC(=O)NCC1=C(n2ccccc2=O)c2cc([N+](=O)[O-])ccc2OC1(C)C", "melting point": 197}
{"smiles": "CCOC(=O)NC(=NC(=O)c1nc(Cl)c(N)nc1N)NC(=O)OCC", "melting point": 213}
